pKi: −log10 of the molar value.
Target: T1, Prostaglandin D2 receptor 2 (Homo sapiens, UniProt Q9Y5Y4)
T1 sequence (Q9Y5Y4 whole entry): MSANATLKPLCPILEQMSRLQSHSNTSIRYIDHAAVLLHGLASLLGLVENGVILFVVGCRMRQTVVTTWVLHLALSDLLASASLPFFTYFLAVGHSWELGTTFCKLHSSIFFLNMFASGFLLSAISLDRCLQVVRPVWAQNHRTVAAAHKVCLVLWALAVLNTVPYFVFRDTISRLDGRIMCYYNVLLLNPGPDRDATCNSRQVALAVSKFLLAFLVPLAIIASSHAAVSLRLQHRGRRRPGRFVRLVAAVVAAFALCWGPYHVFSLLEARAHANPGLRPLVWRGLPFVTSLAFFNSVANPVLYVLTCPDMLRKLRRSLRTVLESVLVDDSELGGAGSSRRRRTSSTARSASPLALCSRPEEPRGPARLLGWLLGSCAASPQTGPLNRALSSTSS
Assay: The inhibitory activity can be investigated by a radioligand binding assay (Sawyer et al., Br. J. Pharmocol 2002, 137, 1163-72). The radioligand binding assay was performed at room temperature in binding buffer (10 mM HEPES/KOH pH […], with protease inhibitor cocktail tablets), containing 1.5 nM [3H]PGD2 (Amersham, 156 Cie/mmol), and 10 ug of hCRTH2 HEK293 (EBNA) cell membrane protein in a final volume of 100 ul in 96 well plates (Corning, USA). Non-specific binding was determined in the presence of 1 uM PGD2 (Cayman, USA). Competing pyrazine sulfonamides were diluted in dimethylsulphoxide so that the total volume of dimethylsulfoxide was kept constant at 1% dimethylsulphoxide (Me2SO). 10 ul of the pyrazine sulfonamides were added. Incubation (60 min at room temperature) was terminated by rapid filtration through 96 wells hydrophobic GF/C Unifilter plates.

pKi | Compound
5.51 | Cc1cc2ccccc2n1Cc1ccc(-c2nccnc2NS(=O)(=O)c2ccccc2C(F)(F)F)cc1
5.57 | O=S(=O)(Nc1nccnc1-c1ccc(CN2CCc3ccccc32)cc1)c1ccccc1C(F)(F)F
6.33 | CN(Cc1ccc(-c2nccnc2NS(=O)(=O)c2ccccc2C(F)(F)F)cc1)c1ccc(C#N)cc1
5.35 | O=S(=O)(Nc1nccnc1-c1ccc(CN(Cc2ccccc2)c2ccccn2)cc1)c1ccccc1C(F)(F)F
6.14 | O=S(=O)(Nc1nccnc1-c1ccc(COc2ccc(Cl)nc2)cc1)c1ccccc1C(F)(F)F
5.83 | CN(Cc1ccc(-c2nccnc2NS(=O)(=O)c2ccccc2C(F)(F)F)cc1)c1ccc(Cl)cc1
5.80 | CN(Cc1ccc(-c2nccnc2NS(=O)(=O)c2ccccc2C(F)(F)F)cc1)c1ccc(Cl)c(Cl)c1
6.21 | O=S(=O)(Nc1nccnc1-c1ccc(CN2CCOc3ccccc32)cc1)c1ccccc1C(F)(F)F
5.88 | O=S(=O)(Nc1nccnc1-c1ccc(COc2ccccc2)cc1)c1ccccc1C(F)(F)F
5.59 | COc1ccc(OCc2ccc(-c3nccnc3NS(=O)(=O)c3ccccc3C(F)(F)F)cc2)cc1
6.23 | CCN(Cc1ccc(-c2nccnc2NS(=O)(=O)c2ccccc2C(F)(F)F)cc1)c1ccccc1
5.53 | CN(Cc1ccc(-c2nccnc2NS(=O)(=O)c2ccccc2Cl)cc1)c1ccc(F)cc1F
6.07 | O=S(=O)(Nc1nccnc1-c1ccc(Cn2c(-c3ccccn3)cc3ccccc32)cc1)c1ccccc1C(F)(F)F
5.58 | O=S(=O)(Nc1nccnc1-c1ccc(CN(Cc2ccccc2)c2ccccn2)cc1)c1ccccc1Cl
5.54 | O=S(=O)(Nc1nccnc1-c1ccc(COc2cccc(Cl)c2)cc1)c1ccccc1C(F)(F)F
5.80 | N#Cc1ccc(OCc2ccc(-c3nccnc3NS(=O)(=O)c3ccccc3C(F)(F)F)cc2)cc1
5.66 | COc1ccc2c(c1)cc(C)n2Cc1ccc(-c2nccnc2NS(=O)(=O)c2ccccc2Cl)cc1
6.02 | O=S(=O)(Nc1nccnc1-c1ccc(Cn2ccc3cc(F)ccc32)cc1)c1ccccc1C(F)(F)F
5.71 | O=S(=O)(Nc1nccnc1-c1ccc(Cn2ccc3ccc(F)cc32)cc1)c1ccccc1C(F)(F)F
5.55 | CN(Cc1ccc(-c2nccnc2NS(=O)(=O)c2ccccc2C(F)(F)F)cc1)c1ccc(Cl)cc1Cl
6.32 | O=S(=O)(Nc1nccnc1-c1ccc(COc2ccc(F)cc2)cc1)c1ccccc1C(F)(F)F
5.83 | CN(Cc1ccc(-c2nccnc2NS(=O)(=O)c2ccccc2Cl)cc1)c1ccc(C#N)cc1
6.15 | CN(Cc1ccc(-c2nccnc2NS(=O)(=O)c2ccccc2C(F)(F)F)cc1)c1cccc(F)c1
5.33 | Cc1cc2cc(Cl)ccc2n1Cc1ccc(-c2nccnc2NS(=O)(=O)c2ccccc2C(F)(F)F)cc1
